# According to ChEMBL document CHEMBL1201862, “PubChem BioAssay data set” (2004):
# Active and inactive are the calls of the source.
# Assays:
# Caspase-6 = biological target: T1, Caspase-6 (Homo sapiens, UniProt P55212); assay: inhibition of CASP6 peptide cleavage – biochemical, VEID-R110 fluorescence, cherry-pick, dose response (AID 720632)
# T1 sequence (P55212 whole entry): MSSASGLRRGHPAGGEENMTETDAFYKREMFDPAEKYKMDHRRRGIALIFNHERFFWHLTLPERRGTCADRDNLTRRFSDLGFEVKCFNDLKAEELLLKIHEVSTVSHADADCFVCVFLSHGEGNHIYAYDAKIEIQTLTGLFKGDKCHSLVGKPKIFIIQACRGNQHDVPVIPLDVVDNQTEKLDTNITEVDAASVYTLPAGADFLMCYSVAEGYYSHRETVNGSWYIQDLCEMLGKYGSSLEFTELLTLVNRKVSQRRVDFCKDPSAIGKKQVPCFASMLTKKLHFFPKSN
# [1] = biological target: Mitogen-activated protein kinase 10 (Homo sapiens, UniProt P53779); assay: Dose response biochemical screening assay for inhibitors of c-Jun N-Terminal Kinase 3 (JNK3). [Related pubchem assays: 746 ]
# Mitogen-activated protein kinase 10, sequence (P53779 whole entry): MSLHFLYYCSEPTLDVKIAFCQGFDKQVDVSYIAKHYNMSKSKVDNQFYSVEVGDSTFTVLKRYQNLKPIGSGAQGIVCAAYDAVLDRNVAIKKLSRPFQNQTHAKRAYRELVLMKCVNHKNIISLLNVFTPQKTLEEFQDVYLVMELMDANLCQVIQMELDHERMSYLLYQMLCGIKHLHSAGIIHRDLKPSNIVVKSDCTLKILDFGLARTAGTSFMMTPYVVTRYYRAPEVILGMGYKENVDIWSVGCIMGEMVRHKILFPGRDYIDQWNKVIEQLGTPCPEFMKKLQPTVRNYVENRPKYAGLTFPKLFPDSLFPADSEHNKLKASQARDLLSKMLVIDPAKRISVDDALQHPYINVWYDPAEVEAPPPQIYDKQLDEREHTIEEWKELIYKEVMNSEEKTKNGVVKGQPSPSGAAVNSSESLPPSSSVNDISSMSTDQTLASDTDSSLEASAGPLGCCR
# Albumin = Albumin (Bos taurus, UniProt P02769); assay: Counterscreen for inhibitors of T-cell receptor (TCR)-CD3 interaction: Fluorescence-based biochemical high throughput dose response assay to identify inhibitors of T-cell receptor (TCR)-CD3 interaction using a TAMRA-labeled BSA probe.; format: functional
# Albumin, sequence (P02769 whole entry): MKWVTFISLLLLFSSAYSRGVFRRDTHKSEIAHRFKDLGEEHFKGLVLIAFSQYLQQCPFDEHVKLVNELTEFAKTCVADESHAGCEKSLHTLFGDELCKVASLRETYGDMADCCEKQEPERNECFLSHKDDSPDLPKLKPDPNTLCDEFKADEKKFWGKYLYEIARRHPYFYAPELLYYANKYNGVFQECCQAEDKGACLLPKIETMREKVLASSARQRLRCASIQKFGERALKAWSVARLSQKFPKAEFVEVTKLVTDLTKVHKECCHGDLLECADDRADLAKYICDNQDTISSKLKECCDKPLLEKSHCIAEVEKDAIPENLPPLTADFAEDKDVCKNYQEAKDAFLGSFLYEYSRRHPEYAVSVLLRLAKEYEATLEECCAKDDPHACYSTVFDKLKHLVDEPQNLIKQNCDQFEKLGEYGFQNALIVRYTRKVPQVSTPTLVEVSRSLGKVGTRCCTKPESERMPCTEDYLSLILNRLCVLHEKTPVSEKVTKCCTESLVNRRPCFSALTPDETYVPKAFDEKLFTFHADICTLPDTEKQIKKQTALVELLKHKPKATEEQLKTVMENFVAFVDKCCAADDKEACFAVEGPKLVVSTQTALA
# Streptococcus = assay: GAS UMAA2166 growth inhibition – luminescence, BacTiterGlo, counter-screen for streptokinase expression inhibitor project, dose response (AID 1915); format: functional, organism-based;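 note: potency for reduction of bacterial viability or growth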
# cells [2] = format: functional, cell-based
# cells [3] = format: functional, cell-based; remark: listed apart in the source
# [4] = tested on: Streptococcus sp. 'group A'; assay: Streptococcus pyogenes SK(-)GAS viability under kanamycin – luminescence, BacTiterGlo, confirmation, counter-screen for streptokinase expression inhibitor project, dose response (AID 1900); format: functional, organism-based
# [5] = Luminescence Cell-Based Dose Response HTS to Identify Activators of Luciferase Translation or Activity in H4 […] Cells. [Related pubchem assays: 1829 (Project Summary), 1814 (Primary HTS)]; format: functional
# [6] = Luminescence Cell-Based Dose Confirmation HTS to Identify Activators of 5'UTR Stem-Loop Driven Alpha-Synuclein mRNA Translation in H4 Neuroglioblastoma Cells. [Related pubchem assays: 1829 (Project Summary), 1814 (Primary HTS)]; format: functional
# [7] = biological target: Heat shock protein HSP 90-alpha (Homo sapiens, UniProt P07900); format: functional, organism-based
# cells [8] = format: functional
# [9] = biological target: T2, Rac GTPase-activating protein 1 (Homo sapiens, UniProt Q9H0H5); assay: blockers of MgcRacGAP-driven Rac1 GTP hydrolysis – biochemical, ADP Hunter fluorescence, primary and confirmatory, confirmation (AID 624330); format: functional
# T2 sequence (Q9H0H5 whole entry): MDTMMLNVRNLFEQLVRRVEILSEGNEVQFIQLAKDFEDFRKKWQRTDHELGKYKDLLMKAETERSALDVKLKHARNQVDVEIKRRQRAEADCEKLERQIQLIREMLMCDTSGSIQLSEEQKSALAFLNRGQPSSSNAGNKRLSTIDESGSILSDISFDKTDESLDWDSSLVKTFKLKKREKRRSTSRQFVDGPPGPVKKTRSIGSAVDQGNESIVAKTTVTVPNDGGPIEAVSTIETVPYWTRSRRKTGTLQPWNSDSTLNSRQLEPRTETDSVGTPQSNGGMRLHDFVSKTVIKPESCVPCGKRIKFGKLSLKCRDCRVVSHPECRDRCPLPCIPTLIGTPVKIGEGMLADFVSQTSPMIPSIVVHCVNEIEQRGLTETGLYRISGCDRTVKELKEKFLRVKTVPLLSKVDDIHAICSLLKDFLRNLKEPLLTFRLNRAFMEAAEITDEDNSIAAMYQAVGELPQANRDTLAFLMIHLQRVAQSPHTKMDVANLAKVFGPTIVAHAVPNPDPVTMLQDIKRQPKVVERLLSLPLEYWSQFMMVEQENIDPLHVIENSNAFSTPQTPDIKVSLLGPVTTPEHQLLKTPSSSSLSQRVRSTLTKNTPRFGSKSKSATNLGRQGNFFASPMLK
# [10] = Vero E6 cell cytotoxicity, dose response, cytotoxicity control for non-replicating M. tuberculosis project, secondary assay (AID 492998); format: functional, VeroE6; settings: Vero C1008
# [11] = biological target: FAD-linked sulfhydryl oxidase ALR (Homo sapiens, UniProt P55789); assay: ALR-catalysed DTT oxidation blockers – biochemical, H2O2 detection, luminescence, cherry-pick, dose response (AID 493248)
# FAD-linked sulfhydryl oxidase ALR, sequence (P55789 whole entry): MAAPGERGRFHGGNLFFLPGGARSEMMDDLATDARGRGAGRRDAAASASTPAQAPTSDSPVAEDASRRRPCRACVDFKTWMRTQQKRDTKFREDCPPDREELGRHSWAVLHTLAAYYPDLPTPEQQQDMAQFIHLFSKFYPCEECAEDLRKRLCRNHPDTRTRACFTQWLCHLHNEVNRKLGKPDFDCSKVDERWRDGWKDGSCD
# [12] = THP-1 cell cytotoxicity, dose response, cytotoxicity control for non-replicating M. tuberculosis project (AID 489025); format: functional
# [13] = viability loss in HeLa cells – cytotoxicity control for MgcRacGAP inhibitor project, dose response (AID 624300); format: functional
# H4 = assay: Luminescence Cell-Based Dose Response HTS to Identify Activators of 5'UTR Stem-Loop Driven Prion Protein mRNA Translation in H4 Neuroglioblastoma Cells. [Related pubchem assays: 1829 (Project Summary), 1814 (Primary HTS)]; format: functional; settings: Homo sapiens
# Leucine aminopeptidase = biological target: T3, Leucine aminopeptidase (Plasmodium falciparum 3D7, UniProt Q8IL11); assay: P. falciparum M17LAP inhibitors, primary screen, biochemical, fluorogenic H-Leu-NHMec substrate, 1536-well (AID 1619); format: functional
# T3 sequence (Q8IL11 whole entry): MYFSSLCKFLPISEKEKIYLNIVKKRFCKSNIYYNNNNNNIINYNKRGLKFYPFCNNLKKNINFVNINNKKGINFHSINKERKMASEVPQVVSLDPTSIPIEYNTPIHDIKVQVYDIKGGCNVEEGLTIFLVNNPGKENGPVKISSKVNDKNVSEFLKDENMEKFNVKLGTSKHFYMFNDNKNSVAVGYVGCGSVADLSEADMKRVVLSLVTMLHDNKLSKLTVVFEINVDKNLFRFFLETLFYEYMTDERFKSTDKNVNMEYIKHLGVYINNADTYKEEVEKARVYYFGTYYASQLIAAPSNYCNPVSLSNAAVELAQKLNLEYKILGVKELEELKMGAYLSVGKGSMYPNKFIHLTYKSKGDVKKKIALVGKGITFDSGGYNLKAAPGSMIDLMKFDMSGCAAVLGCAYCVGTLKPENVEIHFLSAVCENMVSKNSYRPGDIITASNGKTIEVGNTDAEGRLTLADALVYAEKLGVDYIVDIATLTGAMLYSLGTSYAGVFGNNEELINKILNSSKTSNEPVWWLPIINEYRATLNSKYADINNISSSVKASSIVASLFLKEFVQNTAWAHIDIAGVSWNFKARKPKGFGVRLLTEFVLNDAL
# [14] = biological target: T4, Tyrosyl-DNA phosphodiesterase 2 (Homo sapiens, UniProt O95551); assay: potency against TDP2 phosphodiesterase activity – biochemical, epi absorbance, IC50, dose response (AID 743297)
# T4 sequence (O95551 whole entry): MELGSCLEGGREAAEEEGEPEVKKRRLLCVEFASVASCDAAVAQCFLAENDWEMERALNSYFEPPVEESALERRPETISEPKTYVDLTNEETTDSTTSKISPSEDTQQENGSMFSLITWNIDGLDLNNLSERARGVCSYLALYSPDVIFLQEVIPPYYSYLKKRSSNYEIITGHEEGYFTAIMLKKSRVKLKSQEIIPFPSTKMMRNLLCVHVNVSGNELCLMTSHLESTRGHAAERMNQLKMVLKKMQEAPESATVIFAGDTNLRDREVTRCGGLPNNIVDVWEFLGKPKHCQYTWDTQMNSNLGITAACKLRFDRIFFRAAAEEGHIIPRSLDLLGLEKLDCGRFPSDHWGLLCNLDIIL
# [15] = biological target: T5, Histone-lysine N-methyltransferase NSD2 (Homo sapiens, UniProt O96028); format: biochemical
# T5 sequence (O96028 whole entry): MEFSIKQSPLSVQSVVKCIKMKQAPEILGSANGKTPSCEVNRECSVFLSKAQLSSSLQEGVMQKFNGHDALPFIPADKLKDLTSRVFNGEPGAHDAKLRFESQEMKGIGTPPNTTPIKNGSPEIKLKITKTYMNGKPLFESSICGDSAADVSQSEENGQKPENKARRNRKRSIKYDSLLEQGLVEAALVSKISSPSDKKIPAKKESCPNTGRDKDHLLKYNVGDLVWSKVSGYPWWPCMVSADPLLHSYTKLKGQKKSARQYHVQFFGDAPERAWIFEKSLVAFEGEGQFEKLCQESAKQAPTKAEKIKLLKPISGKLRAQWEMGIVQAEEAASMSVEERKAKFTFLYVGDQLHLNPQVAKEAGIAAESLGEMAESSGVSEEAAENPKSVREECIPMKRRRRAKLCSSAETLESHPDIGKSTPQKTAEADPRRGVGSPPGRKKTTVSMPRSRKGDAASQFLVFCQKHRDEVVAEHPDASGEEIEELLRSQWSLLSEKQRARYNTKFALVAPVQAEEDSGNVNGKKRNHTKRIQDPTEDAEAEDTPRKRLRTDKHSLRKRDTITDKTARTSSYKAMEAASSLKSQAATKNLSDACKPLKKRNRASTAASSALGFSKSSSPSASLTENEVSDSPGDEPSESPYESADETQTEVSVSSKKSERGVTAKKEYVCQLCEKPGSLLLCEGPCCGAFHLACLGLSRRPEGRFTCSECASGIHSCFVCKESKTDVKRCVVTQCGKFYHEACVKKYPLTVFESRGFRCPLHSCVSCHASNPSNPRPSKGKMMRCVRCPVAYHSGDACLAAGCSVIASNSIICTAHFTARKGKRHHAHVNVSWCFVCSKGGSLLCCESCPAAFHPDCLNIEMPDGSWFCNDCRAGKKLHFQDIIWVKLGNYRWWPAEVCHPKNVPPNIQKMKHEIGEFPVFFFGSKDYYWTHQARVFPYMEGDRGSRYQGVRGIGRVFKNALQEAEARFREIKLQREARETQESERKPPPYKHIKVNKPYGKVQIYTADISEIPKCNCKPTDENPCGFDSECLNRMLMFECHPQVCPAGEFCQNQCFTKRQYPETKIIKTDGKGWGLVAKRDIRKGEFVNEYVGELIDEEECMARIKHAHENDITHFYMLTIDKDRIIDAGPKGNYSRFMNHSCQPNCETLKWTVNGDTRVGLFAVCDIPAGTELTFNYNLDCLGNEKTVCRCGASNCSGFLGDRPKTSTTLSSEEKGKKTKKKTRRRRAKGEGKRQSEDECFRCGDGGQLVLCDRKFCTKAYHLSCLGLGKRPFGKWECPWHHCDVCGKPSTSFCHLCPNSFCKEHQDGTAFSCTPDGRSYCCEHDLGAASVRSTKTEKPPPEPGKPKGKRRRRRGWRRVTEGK
# [16] = blockade of melanocortin 4 receptor signaling – cell-based, plate reader, cherry pick, counter-screen for LGR2 antagonist project, dose response (AID 743444); format: functional;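 note: transfected HEK 293 cells stimulated with alpha-MSH peptide; potency of inhibitors of the alpha-MSH evoked signal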
# [17] = blockers of bursicon-stimulated LGR2 cAMP reporter – cell-based, HEK293, CRE-luciferase reporter, cherry pick, set 2, dose response (AID 743343); format: functional;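 note: transfected cells were stimulated with diluted bursicon conditioned medium after compound addition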
# [18] = A549 cell cytotoxicity, dose response, cytotoxicity control, plate reader, cherry-pick, antagonist series (AID 743412); format: functional, cell-based
# [19] = alpha-synuclein stem-loop luciferase translation blockers – H4 neuroglioma cells, luminescence, confirmation (AID 1988); format: functional, cell-based
# [20] = luciferase reporter signal suppression in cells – H4 neuroglioma cells, luminescence, dose response (AID 1990); format: functional, cell-based
# [21] = Luminescence Cell-Based Dose Response HTS to Identify Inhibitors of 5'UTR Stem-Loop Driven Prion Protein mRNA Translation in H4 Neuroglioblastoma Cells. [Related pubchem assays: 1827 (Project Summary), 1813 (Primary HTS)]; format: functional
structure (smiles),measurement,setting,value
O=C(Cn1cnc([N+](=O)[O-])n1)c1ccc(O)c(O)c1,AC50,Caspase-6,43.9 µM (active)
O=S(=O)(c1ccc2c(c1)OCCO2)N1CCC(n2cnc3cc(F)ccc32)CC1,IC50,[1],49.4 µM (not active)
Cc1nc2ccccc2c(=O)n1/N=C/c1cc(Br)cc(Br)c1O,IC50,Albumin,> 94.1 µM (inactive)
same,EC50,Streptococcus,8.18 µM (active)
same,EC50,cells [2],> 350 µM (not active)
same,EC50,cells [3],> 350 µM (not active)
same,EC50,[4],5.09 µM (active)
COc1ccc(/C(C#N)=C2C=C/C(=N/O)C=C/2)cc1,EC50,[5],14.5 µM (active)
same,EC50,[6],16.7 µM (active)
same,AC50,[7],4.64 µM (active)
same,IC50,cells [8],44.8 µM (active)
same,IC50,[9],93 µM (active)
same,CC50,[10],13.3 µM (active)
same,AC50,[11],5.88 µM (active)
same,CC50,[12],13 µM (active)
same,CC50,[13],89.3 µM (active)
same,EC50,H4,17.6 µM (active)
CCOc1ccc(NC(=O)CN2C(=O)C3CCCN3C2=O)cc1 (stereo not drawn),IC50,[1],> 93.1 µM (not active)
same,IC50,Leucine aminopeptidase,3.23 µM (active)
CC(=O)N1CCn2c3c(c(=O)c4cc(C)ccc42)CCC31 (stereo not drawn),IC50,[14],43.5 µM (inactive)
same,AC50,[15],7.99 µM (active)
O=C1CC(c2ccc3c(c2)OCO3)Sc2nc3ccccc3n21 (stereo not drawn),AC50,[16],11.2 µM (active)
same,AC50,[17],13.1 µM (active)
same,AC50,[18],> 52 µM (inactive)
CCCCCCn1c(=O)c(C(=O)Nc2ncccc2O)c(O)c2ccccc21,IC50,Albumin,> 94.2 µM (inactive)
same,EC50,[19],9.12 µM (active)
same,EC50,[20],10.7 µM (active)
same,EC50,[21],22.7 µM (active)
